IC50 data for 16 molecules are collected here from patent US9999622B2, “Pyrazolothiazole compound and medicine comprising same” (NIPPON SHINYAKU CO., LTD., priority 2014, dated 2018).

Where a name gives a salt, the structure may show the parent alone. Where only a bound is given, the exact number is not on record here.

What all share (type): biochemical
Assay [1] has as its target T1, JAK1 (Homo sapiens, UniProt P23458).
T1 construct: purchased Carna Biosciences, Inc
The experiment in a line: JAK tyrosine kinase inhibitory activity in the presence of 1 mM ATP (ELISA), JAK1. In a few lines:
(§1)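 Recombinant kinase (7.5 nM JAK1; 0.75 nM JAK2, JAK3 working dilutions) reacted 1 h at 30 °C with 1 mM ATP in Tris-HCl pH 7.5, Tween-20, DTT, on streptavidin plates. Phosphotyrosine detected by HRP anti-pTyr antibody ELISA, TMB absorbance at 450 nm; duplicate wells, DMSO as negative control.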
On the technique in general: An ELISA detects its analyte on a solid surface through an enzyme-linked reagent.

Assay [2] has as its target T2, JAK3 (Homo sapiens, UniProt P52333).
T2 construct: purchased Carna Biosciences, Inc
T2 sequence (P52333 1-1124): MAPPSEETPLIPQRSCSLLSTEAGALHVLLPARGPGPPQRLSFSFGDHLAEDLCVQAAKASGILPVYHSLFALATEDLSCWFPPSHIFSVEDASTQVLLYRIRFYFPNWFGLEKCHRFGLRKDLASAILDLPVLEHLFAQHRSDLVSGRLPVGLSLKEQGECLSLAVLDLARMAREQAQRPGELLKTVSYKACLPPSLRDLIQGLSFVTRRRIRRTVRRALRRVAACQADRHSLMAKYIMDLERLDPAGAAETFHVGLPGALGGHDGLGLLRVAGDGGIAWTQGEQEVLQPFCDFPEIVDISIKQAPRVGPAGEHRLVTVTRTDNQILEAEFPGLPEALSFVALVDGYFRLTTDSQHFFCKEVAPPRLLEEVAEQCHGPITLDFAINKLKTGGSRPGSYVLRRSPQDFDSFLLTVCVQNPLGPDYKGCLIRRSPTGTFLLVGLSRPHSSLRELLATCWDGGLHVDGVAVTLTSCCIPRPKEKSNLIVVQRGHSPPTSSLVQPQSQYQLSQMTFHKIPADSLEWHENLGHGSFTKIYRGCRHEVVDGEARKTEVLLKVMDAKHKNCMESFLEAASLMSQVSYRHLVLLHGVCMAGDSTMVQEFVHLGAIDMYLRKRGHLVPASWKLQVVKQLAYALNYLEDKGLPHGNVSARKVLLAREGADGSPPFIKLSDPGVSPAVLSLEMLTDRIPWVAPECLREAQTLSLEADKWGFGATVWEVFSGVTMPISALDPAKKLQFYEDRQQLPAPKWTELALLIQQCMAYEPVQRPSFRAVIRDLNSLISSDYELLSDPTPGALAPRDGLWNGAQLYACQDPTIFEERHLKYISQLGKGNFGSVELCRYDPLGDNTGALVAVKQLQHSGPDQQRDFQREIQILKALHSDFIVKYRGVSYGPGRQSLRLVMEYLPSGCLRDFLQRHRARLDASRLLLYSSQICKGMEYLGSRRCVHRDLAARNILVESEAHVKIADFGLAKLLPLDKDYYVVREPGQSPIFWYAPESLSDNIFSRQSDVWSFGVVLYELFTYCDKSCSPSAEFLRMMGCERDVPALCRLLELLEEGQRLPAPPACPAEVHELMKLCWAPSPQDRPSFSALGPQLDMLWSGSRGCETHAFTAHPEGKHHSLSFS
The experiment in a line: JAK tyrosine kinase inhibitory activity in the presence of 1 mM ATP (ELISA), JAK3. In a few lines: as §1

The target in assay [3] is T3, JAK2 (Homo sapiens, UniProt O60674).
T3 construct: purchased Carna Biosciences, Inc
T3 sequence (O60674 whole entry): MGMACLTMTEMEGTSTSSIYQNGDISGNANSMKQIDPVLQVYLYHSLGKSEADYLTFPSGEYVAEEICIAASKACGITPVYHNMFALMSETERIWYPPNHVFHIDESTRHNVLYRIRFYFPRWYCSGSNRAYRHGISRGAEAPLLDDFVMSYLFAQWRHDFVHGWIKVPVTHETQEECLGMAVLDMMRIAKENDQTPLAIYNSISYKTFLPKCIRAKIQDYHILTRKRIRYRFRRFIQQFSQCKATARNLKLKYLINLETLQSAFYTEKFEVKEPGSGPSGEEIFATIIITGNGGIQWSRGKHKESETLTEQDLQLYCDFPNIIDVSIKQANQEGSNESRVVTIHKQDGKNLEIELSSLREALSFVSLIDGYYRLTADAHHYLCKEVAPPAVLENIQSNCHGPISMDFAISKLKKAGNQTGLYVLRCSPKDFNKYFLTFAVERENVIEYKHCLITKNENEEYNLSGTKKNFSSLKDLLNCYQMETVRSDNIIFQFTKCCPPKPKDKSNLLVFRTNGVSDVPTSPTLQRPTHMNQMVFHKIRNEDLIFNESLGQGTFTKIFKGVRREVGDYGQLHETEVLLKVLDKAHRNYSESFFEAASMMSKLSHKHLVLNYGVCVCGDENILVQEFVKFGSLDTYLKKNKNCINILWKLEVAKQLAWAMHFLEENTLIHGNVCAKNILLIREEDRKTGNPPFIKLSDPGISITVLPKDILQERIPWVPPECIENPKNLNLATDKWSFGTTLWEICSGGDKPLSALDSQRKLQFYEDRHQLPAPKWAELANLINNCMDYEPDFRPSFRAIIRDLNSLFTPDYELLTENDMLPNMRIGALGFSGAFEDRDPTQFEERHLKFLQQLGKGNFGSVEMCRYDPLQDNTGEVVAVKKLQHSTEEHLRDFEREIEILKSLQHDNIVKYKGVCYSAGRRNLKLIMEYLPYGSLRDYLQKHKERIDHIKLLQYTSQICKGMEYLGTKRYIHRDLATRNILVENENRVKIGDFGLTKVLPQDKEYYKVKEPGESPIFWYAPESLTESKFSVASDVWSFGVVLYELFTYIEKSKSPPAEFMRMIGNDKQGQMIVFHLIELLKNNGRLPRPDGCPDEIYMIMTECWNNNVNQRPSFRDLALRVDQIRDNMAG
The experiment in a line: JAK tyrosine kinase inhibitory activity in the presence of 1 mM ATP (ELISA), JAK2. In a few lines:
as §1

T1 sequence (P23458 whole entry): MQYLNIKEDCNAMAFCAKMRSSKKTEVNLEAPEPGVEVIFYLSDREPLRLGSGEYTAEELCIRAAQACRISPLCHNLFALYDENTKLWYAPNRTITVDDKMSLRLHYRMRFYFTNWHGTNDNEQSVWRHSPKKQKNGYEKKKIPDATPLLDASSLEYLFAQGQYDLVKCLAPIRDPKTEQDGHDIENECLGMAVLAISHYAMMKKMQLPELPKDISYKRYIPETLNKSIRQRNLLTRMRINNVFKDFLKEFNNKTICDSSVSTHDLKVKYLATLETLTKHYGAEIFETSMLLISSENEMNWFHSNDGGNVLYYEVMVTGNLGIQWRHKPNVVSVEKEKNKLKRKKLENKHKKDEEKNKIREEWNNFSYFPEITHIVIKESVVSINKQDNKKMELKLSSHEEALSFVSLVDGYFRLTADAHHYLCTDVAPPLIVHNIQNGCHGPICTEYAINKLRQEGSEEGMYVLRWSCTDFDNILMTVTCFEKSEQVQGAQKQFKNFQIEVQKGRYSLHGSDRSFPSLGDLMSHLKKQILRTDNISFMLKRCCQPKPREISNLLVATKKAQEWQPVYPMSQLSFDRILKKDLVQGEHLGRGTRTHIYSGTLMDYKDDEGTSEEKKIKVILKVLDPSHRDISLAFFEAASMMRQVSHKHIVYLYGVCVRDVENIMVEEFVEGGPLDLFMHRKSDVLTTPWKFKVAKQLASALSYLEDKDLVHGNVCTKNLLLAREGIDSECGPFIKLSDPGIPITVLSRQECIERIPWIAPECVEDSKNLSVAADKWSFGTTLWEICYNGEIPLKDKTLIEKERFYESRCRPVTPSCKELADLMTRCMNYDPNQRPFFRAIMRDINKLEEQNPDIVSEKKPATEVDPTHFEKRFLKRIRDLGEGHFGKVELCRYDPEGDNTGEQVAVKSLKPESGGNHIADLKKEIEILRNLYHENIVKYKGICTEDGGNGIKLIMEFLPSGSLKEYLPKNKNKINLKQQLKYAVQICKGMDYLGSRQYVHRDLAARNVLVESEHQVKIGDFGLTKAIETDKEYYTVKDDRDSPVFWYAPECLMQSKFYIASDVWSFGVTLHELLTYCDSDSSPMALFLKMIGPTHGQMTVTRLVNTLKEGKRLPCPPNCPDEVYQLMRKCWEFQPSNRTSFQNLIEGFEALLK

Regarding `CN(c1cc(C(=O)N2CCC(NC(=O)C3CC3)CC2)nc(-c2cnn3ccsc23)n1)[C@H]1CCC[C@@H]1OC(F)F` [Example 5, N-(1-{[6-{[(1S,2S)-2-(Difluoromethoxy)cyclopentyl](methyl)amino}-2-(pyrazolo[5,1-b][1,3]thiazol-7-yl)pyrimidin-4-yl]carbonyl}piperidin-4-yl)cyclopropanecarboxamide], the values for the IC50 in assay [1], in assay [2] and in assay [3] were 130 nM, 1400 nM and 2500 nM, respectively.

For `CC(C)S(=O)(=O)N1CCC(Nc2cc(C(=O)N3CCC(NC(=O)C4CC4)CC3)nc(-c3cnn4ccsc34)n2)CC1` [Example 193, N-1-[6-[1-(propane-2-sulfonyl)piperidin-4-yl]amino-2-(pyrazolo[5,1-b][1,3]thiazol-7-yl)pyrimidine-4-carbonyl]piperidin-4-ylcyclopropanecarboxamide], the IC50 in assay [1] was 470 nM; in assay [2], greater than 10000 nM; in assay [3] it was greater than 10000 nM.

As for `O=C(NC1CCN(C(=O)c2cc(NC3CC4CCC3C4)nc(-c3cnn4ccsc34)n2)CC1)C1CC1` [Example 176, N-1-[6-[(1R)-bicyclo[2.2.1]heptan-2-yl]amino-2-(pyrazolo[5,1-b][1,3]thiazol-7-yl)pyrimidine-4-carbonyl]piperidin-4-ylcyclopropanecarboxamide], the values for the 50% inhibitory concentration (IC50) in assay [1], in assay [2] and in assay [3] were 78 nM, 4600 nM and 4400 nM, respectively.

For the molecule `CC(C)[C@H](C)Nc1cc(C(=O)N2CCC(NC(=O)C3CC3)CC2)nc(-c2cnn3ccsc23)n1` [Example 123, N-(1-{[6-{[(2S)-3-Methylbutan-2-yl]amino}-2-(pyrazolo[5,1-b][1,3]thiazol-7-yl)pyrimidin-4-yl]carbonyl}piperidin-4-yl)cyclopropanecarboxamide], the IC50 was determined as 260 nM in assay [1], 1600 nM in assay [2] and 1400 nM in assay [3].

As to `C[C@H](Nc1cc(C(=O)N2CCC(NC(=O)C3CCC3)CC2)nc(-c2cnn3ccsc23)n1)C1CC1` [Example 165, N-1-[6-[(1S)-1-cyclopropylethyl]amino-2-(pyrazolo[5,1-b][1,3]thiazol-7-yl)pyrimidine-4-carbonyl]piperidin-4-yl cyclobutanecarboxamide], the half-inhibitory concentration (IC50) is 40 nM in assay [1], 1200 nM in assay [2] and greater than 10000 nM in assay [3].

With `COC(=O)NC1CCN(C(=O)c2cc(N[C@@H]3CCN(C)C3)nc(-c3cnn4ccsc34)n2)CC1` [Example 151, Methyl (1-{[6-{[(3R)-1-methylpyrrolidin-3-yl]amino}-2-(pyrazolo[5,1-b][1,3]thiazol-7-yl)pyrimidin-4-yl]carbonyl}piperidin-4-yl)carbamate], the IC50 in assay [1] is 2600 nM; in assay [2], greater than 10000 nM; in assay [3], greater than 10000 nM.

As for `CC(C)(C)[C@@H](CO)Nc1cc(C(=O)N2CCC(NC(=O)C3CC3)CC2)nc(-c2cnn3ccsc23)n1` [Example 55, N-(1-{[6-{[(2S)-1-Hydroxy-3,3-dimethylbutan-2-yl]amino}-2-(pyrazolo[5,1-b][1,3]thiazol-7-yl)pyrimidin-4-yl]carbonyl}piperidin-4-yl)cyclopropanecarboxamide], the IC50 in assay [1] was 140 nM; in assay [2], greater than 10000 nM; in assay [3], greater than 10000 nM.

Take `C[C@@H](C1CC1)N(C)c1cc(C(=O)N2CCC(Nc3ncccn3)CC2)nc(-c2cnn3ccsc23)n1` [Example 35, [6-{[(1S)-1-Cyclopropylethyl](methyl)amino}-2-(pyrazolo[5,1-b][1,3]thiazol-7-yl)pyrimidin-4-yl][4-(pyrimidin-2-ylamino)piperidin-1-yl]methanone]: the values for the IC50 in assay [1], in assay [2] and in assay [3] were 270 nM, greater than 10000 nM and 2400 nM, respectively.

Regarding `COCC(C)(C)Nc1cc(C(=O)N2CCC(NC(=O)C3CC3)CC2)nc(-c2cnn3ccsc23)n1` [Example 38, N-[1-({6-[(1-Methoxy-2-methylpropan-2-yl)amino]-2-(pyrazolo[5,1-b][1,3]thiazol-7-yl)pyrimidin-4-yl}carbonyl)piperidin-4-yl]cyclopropanecarboxamide], the IC50 in assay [1] was 260 nM; in assay [2] it was greater than 10000 nM; in assay [3] it was 1200 nM.

As to `COC(=O)NC1CCN(C(=O)c2cc(N[C@@H]3CCN(C(C)=O)C3)nc(-c3cnn4ccsc34)n2)CC1` [Example 152, Methyl (1-{[6-{[(3R)-1-acetylpyrrolidin-3-yl]amino}-2-(pyrazolo[5,1-b][1,3]thiazol-7-yl)pyrimidin-4-yl]carbonyl}piperidin-4-yl)carbamate], the half-maximal inhibitory concentration (IC50) is 2300 nM in assay [1], greater than 10000 nM in assay [2] and greater than 10000 nM in assay [3].

Regarding `CC(C)(C)Nc1cc(C(=O)N2CCC(Nc3nccs3)CC2)nc(-c2cnn3ccsc23)n1` [Example 75, [6-(tert-Butylamino)-2-(pyrazolo[5,1-b][1,3]thiazol-7-yl)pyrimidin-4-yl][4-(1,3-thiazol-2-ylamino)piperidin-1-yl]methanone], the IC50 in assay [1] came out at 150 nM; in assay [2], 4800 nM; in assay [3], 930 nM.

As for `COC(=O)NC1CCN(C(=O)c2cc(N[C@@H]3CCN(C(=O)C4CCC4)C3)nc(-c3cnn4ccsc34)n2)CC1` [Example 206, Methyl 1-[6-[(3R)-1-(cyclobutanecarbonyl)pyrrolidin-3-yl]amino-2-(pyrazolo[5,1-b][1,3]thiazol-7-yl)pyrimidine-4-carbonyl]piperidin-4-ylcarbamate], the IC50 in assay [1] was 940 nM; in assay [2] it was greater than 10000 nM; in assay [3], greater than 10000 nM.

Take `CCOC(=O)NC1CCN(C(=O)c2cc(N[C@@H]3CCN(C(=O)CC#N)C3)nc(-c3cnn4ccsc34)n2)CC1` [Example 203, Ethyl 1-[6-[(3R)-1-(cyanoacetyl)pyrrolidin-3-yl]amino-2-(pyrazolo[5,1-b][1,3]thiazol-7-yl)pyrimidine-4-carbonyl]piperidin-4-ylcarbamate]: the values for the half-maximal inhibitory concentration (IC50) in assay [1], in assay [2] and in assay [3] were 70 nM, greater than 10000 nM and greater than 10000 nM, respectively.

With `CCC(CC)N(C)c1cc(C(=O)N2CCC(O)CC2)nc(-c2cnn3ccsc23)n1` [Example 120, (4-Hydroxypiperidin-1-yl){6-[methyl(pentan-3-yl)amino]-2-(pyrazolo[5,1-b][1,3]thiazol-7-yl)pyrimidin-4-yl}methanone hydrochloride], the half-maximal inhibitory concentration (IC50) came out at 870 nM in assay [1], 3400 nM in assay [2] and 3000 nM in assay [3].

For the molecule `CC(=O)NC1CCN(C(=O)c2cc(N[C@@H](C)C3CC3)nc(-c3cnn4ccsc34)n2)CC1` [Example 2, N-(1-{[6-{[(1S)-1-Cyclopropylethyl]amino}-2-(pyrazolo[5,1-b][1,3]thiazol-7-yl)pyrimidin-4-yl]carbonyl}piperidin-4-yl)acetamide], the values for the IC50 in assay [1], in assay [2] and in assay [3] were 570 nM, 2700 nM and 2100 nM, respectively.

On to `COCCOC(=O)NC1CCN(C(=O)c2cc(N[C@H](C)C3CC3)nc(-c3cnn4ccsc34)n2)CC1` [Example 88, 2-Methoxyethyl (1-{[6-{[(1R)-1-cyclopropylethyl]amino}-2-(pyrazolo[5,1-b][1,3]thiazol-7-yl)pyrimidin-4-yl]carbonyl}piperidin-4-yl)carbamate], for which the IC50 is 190 nM in assay [1], 4100 nM in assay [2] and 1000 nM in assay [3].

Broadly, the IC50 is the concentration at which inhibition is half-maximal.
